Results reported in patent publication US8344140B2, “18F-labelled folates” (Merck Eprova AG, priority 2007, dated 2013).

Tests used:
[1] = in vitro plasma stability study, human plasma; type: in vitro ADME; conditions: 37° C.
Experimental: (§1) The ^18F-click folate was employed in in vitro plasma stability studies and in metabolite studies using liver microsomes.
(§2) ^18F-click folate was incubated with both human and murine plasma at 37° C. in a shaking water bath. Aliquots were taken at different time points and analysed by HPLC.

[2] = in vitro plasma stability study, murine plasma; type: in vitro ADME; conditions: 37° C.
Experimental: as §1, §2

[3] = metabolite study using human liver microsomes; type: in vitro ADME; conditions: 37° C., aliquots at 0, 5, 15 and 30 min
Experimental: as §1
(§3) Metabolites studies using human and murine liver microsomes were carried out at 37° C. over a time span of 0-30 min. Aliquots were taken at 0, 5, 15 and 30 min.

[4] = metabolite study using murine liver microsomes; type: in vitro ADME; conditions: 37° C., aliquots at 0, 5, 15 and 30 min
Experimental: as §1, §3

[5] = tested on: folate receptor-positive KB tumors; assay: ex vivo biodistribution in nude mice bearing KB xenografts tumors; conditions: ~2 MBq injected, 45 min post injection
Experimental: ^18F-click folate was applied in ex vivo biodistribution studies using eight nude mice bearing KB xenografts tumors. ˜2 MBq of the radiotracer were injected into each animal. In a blockade group (4 animals) […] natural folic acid was injected 10 min prior to the radiotracer. The animals were scarified 45 min post injection. […] Furthermore a specific uptake with 78% specific blockade was also found in the kidneys, which are known to express the folate receptor.

[6] = tested on: folate receptor-positive KB tumors; assay: in vivo PET imaging in nude mice bearing KB xenografts tumors; conditions: ~11 MBq injected; PET scans 15 min to 45 min post injection
Experimental: In vivo PET imaging using the ^18F-click folate was performed in nude mice bearing KB xenografts tumors. ˜11 MBq of the radiotracer were injected into each animal. In the blockade group 200 μg natural folic acid was injected 10 min prior to the radiotracer. The PET scans were acquired from 15 min to 45 min post injection.
The KB tumors could be imaged by PET using ^18F-click folate.
PET imaging using [^18F]FDG was performed with the same animals four days after the ^18F-click folate studies. ˜9 MBq of [^18F]FDG were injected into each animal. The PET scans were acquired from 30 min to 60 min post injection. […] Although [^18F]FDG is the most commonly used radiotracer in PET tumor imaging, it is known that [^18F]FDG is not suitable for the imaging of KB xenografts tumors (Bettio et al, J. Nucl. Med. […]; 47: 1153-60).
FIG. 4 show the PET images using ^18F-click folate (left hand side) in comparison to PET images using [^18F]FDG (right hand side), the arrows indicate the position of the KB xenografts tumors.

Nc1nc2ncc(CNc3ccc(C(=O)NC(CCC(=O)NCCCCn4cc(CCCC[18F])nn4)C(=O)O)cc3)nc2c(=O)[nH]1 (centres unmarked) [^18F-click folate, γ-(4-(4-(4-[^18F]fluorobutyl)-1,2,3-triazol-1-yl)butyl) folic acid amide]
stability in plasma ([1]; HPLC analysis, 0-120 min): high stability
defluorination or other radioactive degradation products in plasma ([1]; over a period of 0-120 min): No defluorination or other radioactive degradation products were detected
stability in plasma ([2]; HPLC analysis, 0-120 min): high stability
defluorination or other radioactive degradation products in plasma ([2]; over a period of 0-120 min): No defluorination or other radioactive degradation products were detected
radioactive metabolites or degradation in liver microsomes [3]: no radioactive metabolites or degradation
radioactive metabolites or degradation in liver microsomes [4]: no radioactive metabolites or degradation
specific blockade of radiotracer uptake in KB tumors ([5]; KB tumors, natural folic acid 10 min prior in blockade group): 94%
specific blockade of radiotracer uptake in kidneys ([5]; kidneys, natural folic acid 10 min prior in blockade group): 78%
unspecific uptake in gallbladder, intestine and feces ([5]; points to hepatobiliary elimination): High unspecific uptake
accumulation of radioactivity in the abdominal region (gallbladder, intestines) [6]: high accumulation
tumor-to-background ratio [6]: low
